Data as given in patent US10590166B2, “Peptides useable for treating cancer” (Allegro Pharmaceuticals, LLC, priority 2009, dated 2020).
Where “and” joins values, the source holds several entries; their conditions need not be identical. Identical values can stand only once. Like-named read-outs stand apart in the source and are kept apart here. Square brackets hold non-standard residues; d marks the D form. Peptide text beside a SMILES is read from it. Cya = N[CH](CS(=O)(=O)O)C(=O)O

Assays:
Assay type in all cases: in vivo
New Zealand Rabbits [1] = assay: Ocular toxicity of intravitreal Compound 1 with and without urea (Table A); conditions: 24 hour follow up
rho/VEGF mice = assay: Subretinal neovascularization in transgenic rho/VEGF mice expressing human VEGF; conditions: 25 μg, single intraocular injection, seven days post-dose, 3 animals
Protocol: Transgenic mice in which the rhodopsin promoter drives expression of human VEGF in photoreceptors (rho/VEGF mice) were randomized into separate treatment groups and studies were performed to provide the following comparisons:
Pretreatment measurements of the area of subretinal neovascularization were made on each animal using image analysis by a masked observer. Each animal received its designated treatment in a single intraocular injection. Seven days post-dose, measurements of the area of subretinal neovascularization were again made and compared to the pre-dose measurements to determine the change in subretinal neovascularization area. Also, the animals were sacrificed and the retinas were dissected, immunostained with GSA lectin and examined by fluorescence microscopy.

[2] = test system: human subjects with diabetic macular edema; conditions: for persistence of improvements in BCVA and OCT central macular thickness off treatment: follow up after the last intravitreal treatment
Protocol: Fifteen human patients with late stage DME received three monthly intravitreal injections of Compound 1 as part of a multiple-injection Phase 1 Human Safety Study. […] While this study was firstly a safety study, efficacy was also assessed. Eight of the patients patients improved three or more lines in BCVA (representing 53% of the treated patients) and four of the patients improved from nearly legally blind to functional vision in the 20/40 to 20/60 range. […] These improvements in BCVA and OCT central macular thickness persisted for 90 days of follow up off treatment.
The objective of the Phase 1 study was to evaluate the safety and initial efficacy of the ophthalmic intravitreal injection of COMPOUND 1 in human subjects with end stage diabetic macular edema (DME). The primary endpoint of this study was the observation of dose limiting toxicity. A secondary endpoint of this study was observation of a clinical benefit in reducing the diabetic macular edema in BCVA (ETDRS lines) and OCT central macular thickness.
Fifteen human subjects with chronic end-stage DME completed this open label study. Subjects at enrollment had BCVA of 20/100 or worse primarily due to DME and had not undergone anti-VEGF treatment or focal laser within 90 days prior to enrollment. Many study subjects were refractory to previous Avastin treatments. Study subjects received three monthly intravitreal injections of 2.5 mg COMPOUND 1 and were followed monthly for an additional 3 months. Safety measurements were followed by BCVA, slit lamp evaluation, dilated fundus exam, 10P measurements, OCT, FA, Fundus Photos, B-scan ultrasound, and ERG.

[3] = test system: ischemic retinopathy mouse model; assay: ROP / ischemic retinopathy mouse model, pre-retinal neovascularization
Protocol: In this Example, Compound 1 was tested in an ischemic retinopathy mouse model to explore the feasibility of suppressing pre-retinal neovascularization.
Mice that had ischemic retinopathy were injected intravitreously with a single dose of Compound 1 at the concentration of 0.125 μg/1 μL, 12.5 μg/1 μL, 25.0 μg/1 μL and at 50.0 μg/1 μL (Groups B, D, F and H, respectively), as well as a vehicle (BSS) (Controls 1, 2, 3 and 4) on post-natal day 12. On post-natal day 17, 5 days after intravitreal injection, the area of neovascularization was measured by image analysis. FIG. 9 is a bar graph comparing the measured area of neovascularization in mice treated with these varying doces of compound 1 or control (vehicle only).

New Zealand Rabbits [4] = assay: Ocular toxicity of subconjunctival Compound 1 (Table C); conditions: single subconjunctival 5.0 mg/100 μL, 48 hour follow up
[5] = single intravitreal 2.5 mg/100 μL
[6] = single intravitreal injection, 8 eyes per group
[7] = 15 DME patients, three monthly intravitreal injections of 2.5 mg
[8] = 15 DME patients, three monthly intravitreal injections of 2.5 mg, listed as COMPOUND 1

Structure (SMILES): CC(O)C(NC(=O)C(CS(=O)(=O)O)NC(=O)CNC(=O)C(CCCNC(=N)N)NC(=O)CN)C(=O)N1CCCC1C(=O)O (stereo not drawn) [Compound 1, Glycinyl-Arginyl-Glycinyl-Cysteic-Threonyl-Proline-COOH] (H-GRG[Cya]TP-OH; configuration not given here)
- Ocular toxicity: RPE toxicity (New Zealand Rabbits [1]; [5]): No RPE toxicity
- Ocular toxicity: cataract formation (New Zealand Rabbits [1]; [5]): No cataract
- Ocular toxicity: exudates (New Zealand Rabbits [1]; [5]): No exudates
- Ocular toxicity: inflammation (New Zealand Rabbits [1]; [5]): No inflammation
- Ocular toxicity: retinal hemorrhage (New Zealand Rabbits [1]; [5]): No retinal
- Ocular toxicity: retinal tears, breaks or detachments (New Zealand Rabbits [1]; [5]): No retinal tears,
- Ocular toxicity: retinal vascular compromise (New Zealand Rabbits [1]; [5]): No retinal
- Total PVD (New Zealand Rabbits [1]; [6]): 75% Total PVD
- Vitreous liquefaction (New Zealand Rabbits [1]; [6]): Complete
- greater reduction in subretinal neovascularization area than control animals (Phosphate Buffered Saline) (rho/VEGF mice): 37.06%
- number of patients with no material increase in CMT ([2]; 15 DME patients): 7 out of 15 patients
- number of subjects with no material change in BCVA ([2]; 15 DME patients): 7 out of 15 subjects
- share of treated patients improved three or more lines in BCVA ([2]; 15 DME patients, by study day 90 after 3 intravitreal injections of 2.5 mg): 53%
- number of patients improved from nearly legally blind to functional vision in the 20/40 to 20/60 range ([2]; 15 DME patients, three monthly intravitreal injections): four
- number of patients with reduction in CMT by 30% to 80% [2, 7]: eight
- number of subjects improved BCVA by three or more (three to five) lines [2, 7]: Eight
- share of subjects with reduction in OCT central macular thickness of at least 30% [2, 7]: 53%
- number of patients with reduction in CMT by 30% to 80% [2, 8]: 8 out of 15 and 8 of 15 patients
- number of subjects improved BCVA by three or more (three to five) lines [2, 8]: 8 out of 15 and 8 of 15 subjects
- maximum reduction in macular edema (OCT) ([2]; 608 to 103): 505 microns
- maximum reduction in macular edema (OCT), relative ([2]; 608 to 103 microns): ~80%
- persistence of improvements in BCVA and OCT central macular thickness off treatment [2]: 90 days
- persistence of improvements in BCVA and OCT central macular thickness off treatment ([2]; listed as COMPOUND 1): at least 90 days
- ERG changes ([2]; in vivo): No ERG changes
- corneal decompensation or cataract progression ([2]; in vivo): No corneal decompensation or cataract progression
- elevations in IOP ([2]; in vivo): No sustained elevations in IOP
- inflammatory reactions in the anterior chamber or vitreous cavity ([2]; in vivo): no reports of inflammatory reactions
- retinal tears or retinal detachments ([2]; in vivo): No retinal tears or retinal detachments
- vascular occlusions ([2]; in vivo): no vascular occlusions
- size of neovascularization lesions ([3]; Group B, single intravitreal 0.125 μg/1 μL on post-natal day 12, measured day 17): somewhat smaller
- size of neovascularization lesions ([3]; Group D, single intravitreal 12.5 μg/1 μL on post-natal day 12, measured day 17, statistically significant vs control): greatly decreased
- size of neovascularization lesions ([3]; Group F, single intravitreal 25.0 μg/1 μL on post-natal day 12, measured day 17, statistically significant vs control): greatly decreased
- size of neovascularization lesions ([3]; Group H, single intravitreal 50.0 μg/1 μL on post-natal day 12, measured day 17, statistically significant vs control): greatly decreased
- Ocular toxicity: RPE toxicity (New Zealand Rabbits [4]): No RPE toxicity
- Ocular toxicity: cataract formation (New Zealand Rabbits [4]): No cataract
- Ocular toxicity: exudates (New Zealand Rabbits [4]): No exudates
- Ocular toxicity: inflammation (New Zealand Rabbits [4]): No inflammation
- Ocular toxicity: retinal hemorrhage (New Zealand Rabbits [4]): No retinal
- Ocular toxicity: retinal tears, breaks or detachments (New Zealand Rabbits [4]): No retinal tears,
- Ocular toxicity: retinal vascular compromise (New Zealand Rabbits [4]): No retinal vascular
- Total PVD (New Zealand Rabbits [4]; 3 eyes): 0% Total PVD
- Vitreous liquefaction (New Zealand Rabbits [4]; 3 eyes): No liquefaction
